US8017576B2, “Methods and compositions to treat mucositis” (The University of Chicago, priority 2005, dated 2011)
Where no end group is shown, it is not given here.

Assays:
Syrian golden hamsters = test: Study 1: epithelial thickening of oral mucosal surfaces in hamsters; format: in vivo, hamster; settings: Study 1, hamsters
Procedure: (§1) The capacity of the AMP77-97 peptide to induce epithelial thickening of oral mucosal surfaces in mice and hamsters was studied to determine if these animals could be used to evaluate the potential of AMP77-97 peptide in the treatment of oral mucositis. In Study 1, female BDF-1 mice (n=8) and Syrian golden hamsters (n=8) were given daily subcutaneous injections of saline, mouse AMP77-97 peptide at 5 mg/kg, or 25 mg/kg for five days. […] There also appeared to be an increase in both hyperplasia and hyperkeratosis with increasing dose (more prevalent/pronounced in the animals receiving 25 mg/kg than those receiving 5 mg/kg) and duration of dosing (there were some effects seen at 2 days, but were more readily seen after 5 consecutive days). The effect was more easily observed on the dorsal than the ventral surface of the tongue.

BDF-1 mice [1] = test: Study 1: epithelial thickening of oral mucosal surfaces in mice; format: in vivo; settings: Study 1, mice
Procedure: as §1

hamster cheek pouch = test: Study 6: radiation-induced cheek pouch mucositis, topical dosing; format: in vivo; settings: each of the hamster cheek pouch studies and the mouse model
Procedure: In a separate test of efficacy (Study 6), AMP77-97 peptide was administered topically into the hamster cheek pouch (n=32). Doses of 0.5, 5 or 50 mg/kg AMP77-97 peptide in PBS were placed in the pouch three times daily from days −5 to −1 before radiation and 1 to 15 after radiation.
Acute Radiation-induced Mucositis. Oral mucositis was induced in hamsters by administering a single dose of radiation of 40 Gy. On day 0, under anesthesia (intraperitoneal injection of ketamine [160 mg/kg] and xylazine [8 mg/kg]), the left buccal pouch was everted, fixed, and radiated while the rest of the animal was shielded with lead cover. Radiation was generated using a 160-kV potential (18.75-ma) source at a focal distance of about 21 cm, hardened with a 3-mm Al filtration system. Ionizing radiation was targeted at the left buccal pouch mucosa at a rate of 1.32 Gy/minute.
Mucositis Evaluation: The progression of mucositis was monitored daily for both models. Every other day starting on day 6 postirradiation, animals were anesthetized using inhalation anesthesia, and the left buccal pouch was everted and photographed. At the conclusion of the study's clinical phase, film was developed, and resulting photos were randomly numbered and then scored in blinded fashion by two observers. […] Severity of oral mucositis (OM) was calculated using the scores per treatment group on each observation day (mean±SE). […]

BDF-1 mice [2] = settings: mouse, in vivo
Procedure: AMP77-97 peptide (25 mg/kg, s.c.) was administered 5 days before and 10 days after radiation of the tongue in the BDF-1 mouse model of oral mucositis. Photomicrographs were prepared 10 days after radiation. Tissue from control irradiated mice treated with vehicle (saline) show substantial epithelial and connective tissue cell loss in both compartments compared to normal mouse tongue.
In Study 3, mucositis was induced in BDF-1 mice (n=40) by administering a single dose of radiation of 30 Gy to the snout. To evaluate the effect of AMP77-97 peptide in this setting of radiation-induced injury of the epithelial and connective tissue compartments of the tongue, mouse AMP77-97 peptide (25 mg/kg) was administered once daily subcutaneously before and after radiation (days −5 to 10; radiation on day 0). […] The evaluation was performed on day 10 when mucositis injury is at its peak. This effect on connective tissue supported that AMP77-97 peptide has beneficial effects on multiple cell and tissue types damaged by radiation.

[3] = test system: BDF-1, C3H/OuJ, C3H/HeN, C57Bl/6 and Balb c mice; test: Study 2: thickening of oral epithelium in five mouse strains; format: in vivo; settings: Study 2, five mouse strains
Excerpt: In Study 2, the effect of AMP77-97 peptide on thickening in the oral epithelium was compared in five different strains of mice. […] Hyperkeratosis was again observed in the esophagus of BDF-1 mice, and was also seen in C3H/HeN mice.

[4] = test system: human colonic Caco2 (C2) cell monolayers; test: Tight junction recovery after low-calcium disruption, ZO-1 confocal microscopy; format: cell-based; settings: low-calcium medium (3 μM) 1 hour, assessed 2 hours after addition; AMP peptide 8 μg/ml, KGF-1 100 ng/ml, EGF 100 ng/ml
Procedure: The AMP77-97 peptide prevented decreases in TJ proteins and epithelial integrity seen after treatment of human colonic Caco2 (C2) cell monolayers with the oxidant monochloramine, which disrupts intercellular junctions (FIG. 2; C,D). These cells were exposed to low-calcium medium (3 μM) for 1 hr to disrupt TJs, and then allowed to recover in medium containing AMP77-97 peptide, epidermal growth factor (EGF) or keratinocyte growth factor (KGF-1) which are known epithelial cell mitogens that might facilitate recovery of disrupted TJs. […] At the molecular level, AMP77-97 peptide facilitates the formation of TJs by enhancing translocation of several proteins (protein kinase C-zeta, Par6, Cdc42, ECT2 and Par3) from the cytosol into TJ domains.
Localization of the tight junction protein ZO-1 was monitored by indirect immunofluorescence laser scanning confocal microscopy in confluent monolayers of C2 cells. […] To disrupt tight junctions, cells were switched to low-calcium medium (3 μM) for 1 hour. Then a growth factor at a known mitogenic concentration was added to the medium, and 2 hours later its effect on tight junction formation was assessed by confocal microscopy. Vehicle, AMP peptide (8 μg/ml), KGF-1 (100 ng/ml), and EGF (100 ng/ml) were compared.

Row | Substance | toxicity (weight gain, mortality) (Syrian golden hamsters) | toxicity (weight gain, mortality) (BDF-1 mice [1]) | toxicity as measured by weight loss or mortality (hamster cheek pouch) | toxicity (BDF-1 mice [2]) | toxicity (weight gain, mortality) [3] | formation of new tight junctions / localization of ZO-1 [4]
1 | LDALVKEKKLQGKGPGGPPPK [AMP77-97 peptide] | no evidence of any toxicity | no evidence of any toxicity | no signs of toxicity | no evidence of any toxicity | no evidence of any toxicity | –
2 | EGF: epidermal growth factor, known epithelial cell mitogen [reference compound] | – | – | – | – | – | persistent separation of cells with TJ disruption and apparent loss of ZO-1
